# Experimental data reported in patent US11690902B2 (priority 2018, dated 2023).
# Entries after “also recorded” stand apart in the source; their conditions may differ.
# Tests used:
# [1] = system: splenocytes from tgHLA-DR3 mice; conditions: in vivo; for # of mice responding: mouse
# [2] = system: human PBMCs of individuals naturally exposed to C. burnetii; assay type: cell-based
# DRB1*0301 = biological target: T1, DRB1*0301 (Homo sapiens, UniProt P01903+P01911, A100K/A102G/A103R/A169T/F55Y/I96L/K41T/L162R/M171V/P40S/Q125H/Q178H/Q39Y/R42S/S66N/T106N/T262R/W38E/Y61H); experiment: HLA class II competition binding assay, DRB1*0301; conditions: peptides immunogenic in tgHLA-DR3 mice
# T1 construct: purchased Benaroya Institute, Seattle, Wash
sequence,measurement,setting,value
NAGIIRNKLKIQATIN [p43],"SFU, Mouse 1/3",[1],135
same,"SFU, Mouse 2/3",[1],65
same,"SFU, Mouse 3/3",[1],116
same,"SI (stimulation index), Mouse 1/3",[1],4.88
same,"SI (stimulation index), Mouse 2/3",[1],3.04
same,"SI (stimulation index), Mouse 3/3",[1],4.48
same,# of mice responding,[1],3
same,Donors recognizing peptides recognized solely by past asymptomatic subjects,[2],3/33
RLGFMSFFTKAVVEALKRF [p22],Highly antigenic / highly reactive peptide in the human cohort,[2],highly reactive; also recorded: highly antigenic
LSSIIHKLTSFSKTEA [p38],Highly antigenic / highly reactive peptide in the human cohort,[2],highly antigenic
GLSWLTILKKRNNYRDSFN [p44],Human immunoreactive in at least one IGRA+ donor (category),[2],at least one IGRA + donor
IDHLQQMTRQQVAMQTHK [p36],Binding to DRB1*0301 in vitro,DRB1*0301,all except one (p36) also showed binding
same,"SFU, Mouse 1/3",[1],52
same,"SFU, Mouse 2/3",[1],55
same,"SFU, Mouse 3/3",[1],0
same,"SI (stimulation index), Mouse 1/3",[1],3.44
same,"SI (stimulation index), Mouse 2/3",[1],3.86
same,"SI (stimulation index), Mouse 3/3",[1],0.86
same,# of mice responding,[1],2
same,Human immunoreactive in at least one IGRA+ donor (category),[2],at least one IGRA + donor
FTFRSQDSRRVQEW [p13],Donors recognizing peptides recognized solely by past asymptomatic subjects,[2],1/33
same,Human immunoreactive in at least one IGRA+ donor (category),[2],at least one IGRA + donor
KDDILEAVANMSVMDV [p3],Donors recognizing peptides recognized only within group C,[2],single
same,Human immunoreactive in at least one IGRA+ donor (category),[2],at least one IGRA + donor
EAVYKGFTPLKAEDIAEA [p19],Highly antigenic / highly reactive peptide in the human cohort,[2],highly antigenic
LKPFHFISSPTRDLQIA [p16],"SFU, Mouse 1/3",[1],180
same,"SFU, Mouse 2/3",[1],27
same,"SFU, Mouse 3/3",[1],19
same,"SI (stimulation index), Mouse 1/3",[1],8.94
same,"SI (stimulation index), Mouse 2/3",[1],2.05
same,"SI (stimulation index), Mouse 3/3",[1],1.94
same,# of mice responding,[1],1
same,Highly antigenic / highly reactive peptide in the human cohort,[2],highly reactive
same,Human immunoreactive in at least one IGRA+ donor (category),[2],at least one IGRA + donor
SRAFLTANKNKPGVKT [p7],Human immunoreactive in at least one IGRA+ donor (category),[2],at least one IGRA + donor
ISLLVFKNSHRVQLWAK [p28],"SFU, Mouse 1/3",[1],63
same,"SFU, Mouse 2/3",[1],54
same,"SFU, Mouse 3/3",[1],41
same,"SI (stimulation index), Mouse 1/3",[1],3.76
same,"SI (stimulation index), Mouse 2/3",[1],3.79
same,"SI (stimulation index), Mouse 3/3",[1],2.63
same,# of mice responding,[1],2
same,Donors recognizing peptides recognized solely by past asymptomatic subjects,[2],1/33
same,Human immunoreactive in at least one IGRA+ donor (category),[2],at least one IGRA + donor
PAKINLARTYIAMED [p34],Recognition of HLA class II peptide by any subject,[2],not recognized by any subject
DQRITQLKNLNSNNSDSSNDN [p49],Recognition of HLA class II peptide by any subject,[2],not recognized by any subject
AIYFIGWYANLAHIKLGIS [p9],Recognition of HLA class II peptide by any subject,[2],not recognized by any subject
IKGWQEALTRMKPGAIWEI [p8],Human immunoreactive in at least one IGRA+ donor (category),[2],at least one IGRA + donor
LAQYRELEAFSQFAS [p5],Human immunoreactive in at least one IGRA+ donor (category),[2],at least one IGRA + donor
MMEHLQNITNLVSTGRQGA [p15],Highly antigenic / highly reactive peptide in the human cohort,[2],highly antigenic
SHEVLHAMSRGVEVLA [p6],Donors recognizing peptides recognized only within group C,[2],multiple donors
IARYFMVNISQLIGEE [p21],Number of IGRA+ subjects recognizing the peptide,[2],8/56
same,Number of IGRA− subjects recognizing the peptide,[2],3/21
same,"Proportion of IGRA+ donors with IFNγ recall response to the peptide, SI cutoff of 2",[2],14.3%
same,Recall response frequency in IGRA− donors,[2],14.3%
VPGYRNASSKRFVAP [p46],Highly antigenic / highly reactive peptide in the human cohort,[2],highly antigenic
QGHIINIGSISSHQV [p18],Highly antigenic / highly reactive peptide in the human cohort,[2],highly antigenic
VFNITLQKVMAPELPVL [p35],Recognition of HLA class II peptide by any subject,[2],not recognized by any subject
VAKLRGDLSSIIHKL [p37],Highly antigenic / highly reactive peptide in the human cohort,[2],highly antigenic
SDMWQALLAGKSGVK [p25],Donors recognizing peptides recognized solely by past asymptomatic subjects,[2],3/33
same,Human immunoreactive in at least one IGRA+ donor (category),[2],at least one IGRA + donor
QNAFQLQETIVSTEN [p40],Recognition of HLA class II peptide by any subject,[2],not recognized by any subject
REAVLFLVTIKELLEDP [p23],"SFU, Mouse 1/3",[1],69
same,"SFU, Mouse 2/3",[1],21
same,"SFU, Mouse 3/3",[1],63
same,"SI (stimulation index), Mouse 1/3",[1],2.30
same,"SI (stimulation index), Mouse 2/3",[1],1.89
same,"SI (stimulation index), Mouse 3/3",[1],2.47
same,# of mice responding,[1],2
same,Highly antigenic / highly reactive peptide in the human cohort,[2],highly antigenic
SEQITLQTAEKVGLNVA [p1],Donors recognizing peptides recognized only within group C,[2],multiple donors
same,Human immunoreactive in at least one IGRA+ donor (category),[2],at least one IGRA + donor
VARVSRLKDNFVVLEISKGTEITVQ [p29],Donors recognizing peptides recognized solely by past asymptomatic subjects,[2],1/33
same,Human immunoreactive in at least one IGRA+ donor (category),[2],at least one IGRA + donor
DGRLEQLNSQNQQLQ [p33],Donors recognizing peptides recognized only within group C,[2],single
same,Donors recognizing peptides recognized solely by past asymptomatic subjects,[2],1/33
same,Human immunoreactive in at least one IGRA+ donor (category),[2],at least one IGRA + donor
DHAYKLAVSSTKSMT [p42],Donors recognizing peptides recognized solely by past asymptomatic subjects,[2],3/33
EHTIVVNASASEAAALQ [p10],"SFU, Mouse 1/3",[1],256
same,"SFU, Mouse 2/3",[1],82
same,"SFU, Mouse 3/3",[1],43
same,"SI (stimulation index), Mouse 1/3",[1],5.80
same,"SI (stimulation index), Mouse 2/3",[1],4.51
same,"SI (stimulation index), Mouse 3/3",[1],2.00
same,# of mice responding,[1],2
same,Donors recognizing peptides recognized only within group C,[2],multiple donors
same,Human immunoreactive in at least one IGRA+ donor (category),[2],at least one IGRA + donor
TGEIVKMINQAKQSIYVQG [p32],"SFU, Mouse 1/3",[1],64
same,"SFU, Mouse 2/3",[1],70
same,"SFU, Mouse 3/3",[1],28
same,"SI (stimulation index), Mouse 1/3",[1],3.82
same,"SI (stimulation index), Mouse 2/3",[1],4.62
same,"SI (stimulation index), Mouse 3/3",[1],2.11
same,# of mice responding,[1],2
same,Human immunoreactive in at least one IGRA+ donor (category),[2],at least one IGRA + donor
GVAYTYNRANAGLPTNK [p45],Highly antigenic / highly reactive peptide in the human cohort,[2],highly antigenic
same,Number of IGRA+ subjects recognizing the peptide,[2],7/56
same,"Proportion of IGRA+ donors with IFNγ recall response to the peptide, SI cutoff of 2",[2],12.5%
TPTFVIGNKALTKFGF [p2],"SFU, Mouse 1/3",[1],120
same,"SFU, Mouse 2/3",[1],141
same,"SFU, Mouse 3/3",[1],18
same,"SI (stimulation index), Mouse 1/3",[1],6.63
same,"SI (stimulation index), Mouse 2/3",[1],8.28
same,"SI (stimulation index), Mouse 3/3",[1],1.53
same,# of mice responding,[1],2
same,Highly antigenic / highly reactive peptide in the human cohort,[2],highly reactive
PITKKQLKTMSNYEVIAK [p11],Recognition of HLA class II peptide by any subject,[2],not recognized by any subject
AENVLIIHNKTLAHRYLA [p31],"SFU, Mouse 1/3",[1],0
same,"SFU, Mouse 2/3",[1],14
same,"SFU, Mouse 3/3",[1],84
same,"SI (stimulation index), Mouse 1/3",[1],0.88
same,"SI (stimulation index), Mouse 2/3",[1],1.72
same,"SI (stimulation index), Mouse 3/3",[1],4.32
same,# of mice responding,[1],1
same,Highly antigenic / highly reactive peptide in the human cohort,[2],highly reactive
QELEVAQNKAMSDFM [p39],Human immunoreactive in at least one IGRA+ donor (category),[2],at least one IGRA + donor
PDYVLNAVNHIRYKP [p14],"SFU, Mouse 1/3",[1],157
same,"SFU, Mouse 2/3",[1],371
same,"SFU, Mouse 3/3",[1],11
same,"SI (stimulation index), Mouse 1/3",[1],7.94
same,"SI (stimulation index), Mouse 2/3",[1],20.21
same,"SI (stimulation index), Mouse 3/3",[1],1.42
same,# of mice responding,[1],2
same,Highly antigenic / highly reactive peptide in the human cohort,[2],highly reactive; also recorded: highly antigenic
LKDVVALRNQAQTAK [p41],"SFU, Mouse 1/3",[1],87
same,"SFU, Mouse 2/3",[1],30
same,"SFU, Mouse 3/3",[1],0
same,"SI (stimulation index), Mouse 1/3",[1],5.06
same,"SI (stimulation index), Mouse 2/3",[1],2.55
same,"SI (stimulation index), Mouse 3/3",[1],0.98
same,# of mice responding,[1],1
same,Human immunoreactive in at least one IGRA+ donor (category),[2],at least one IGRA + donor
